How the values were obtained:
MCF-7 = experiment: MTT anti-proliferative assay, MCF-7 breast cancer cells; type: cell-based; conditions: Homo sapiens, MCF7, 48 h exposure, mean ± SD of three separate experiments
Procedure: (§1) 1. Anti-proliferative activity toward human breast cell lines
(§2) The two examined human breast cancer cell lines (T-47D and MCF-7) have been obtained from American Type Culture Collection (ATCC). Cells lines were maintained as monolayers in Dulbecco’s Modified Eagle’s Medium (DMEM) supplemented with 10% FBS, 2 mM L-glutamine, 100 U/ml penicillin and 100µg/ml streptomycin sulfate. Cells were sub-cultured with trypsine /EDTA solution, counted with haemocytometer and plated onto 96-well plates (5000 cells/well) and left overnight to form a semi-confluent monolayer. Cell monolayers were treated in quadrates with vehicle (DMSO, 0.1% v/v), test samples or Adriamycin as positive control for an exposure time of 48 h. At the end of exposure, MTT solution in PBS (5 mg/ml) was then added to all well including no cell blank and left to incubate for 90 min. The formation of formazan crystals were visually confirmed using phase contract microscopy. DMSO (100 µl/well) was added to dissolve the formazan crystals with shaking for 10 min after which the absorbance was read at 590 nm against no cell blanks on a FLuo Star Optima microplate reader (BMG technologies, Germany).
(§3) Cell proliferation was calculated comparing the OD values of the DMSO control wells and those of the samples represented as % proliferation to the control. Dose-response experiment was performed on samples producing > or =50% loss of cell proliferation using five serial 2-fold […]
(§4) IC50 values (concentration of sample causing 50% loss of cell proliferation of the vehicle control) were calculated using non-linear regression curve fitting of the dose response plots on GraphPad Prism V.6.0 software. […]

MCF-7 cells [1] = experiment: Annexin V-FITC/PI dual staining apoptosis assay in MCF-7 cells; type: cell-based, human; conditions: at IC50 concentration
Procedure: To investigate further the effect of the promising compounds 5d, 5e, and 5f on cell apoptosis, Annexin V-FITC/propidium iodide dual staining assay was performed according to the reported method. The morphological markers of apoptosis in the breast cancer MCF-7 cell line were examined before and after treatment with the compounds of interest. Apoptosis assay depends on the translocation of the phosphatidylserine (PS) phospholipid to the cell surface in cells undergoing apoptosis which can be easily detected by staining with the fluorescent conjugate of annexin V followed by flow cytometry analysis. Simultaneously, MCF-7 cells were stained with propidium iodide (PI) which could enter cells with damaged plasma membranes only. This enables the discrimination between early apoptotic cells (positive for PS, but negative for PI) from late apoptotic and necrotic cells (positive for both PS and PI). […]
4. Annexin V-FITC Apoptosis Assay
Phosphatidylserine externalization was assayed using Annexin V-FITC/PI apoptosis detection kit (BD Biosciences, USA) according to the manufacturer’s instructions. Breast cancer MCF-7 cells were cultured to a monolayer then treated with hybrids (5d, 5e and 5f) at their IC50 concentration. Briefly, cells were then harvested via trypsinization, and rinsed twice in PBS followed by binding buffer. Moreover, cells were re-suspended in 100 μL of binding buffer with the addition of 1 μL of FITC-Annexin V followed by an incubation period of 30 min at 4 °C. Cells were then rinsed in binding buffer and resuspended in 150 μL of binding buffer with the addition of 1 μL of DAPI (1 μg/μL in PBS). Cells were then analyzed using the flow cytometer BD FACS Canto II and the results were interpreted with FlowJo7.6.4 software (Tree Star, Ashland, OR,

GSK-3β = target: T1, GSK-3β (Homo sapiens, UniProt P49841); experiment: GSK-3β kinase inhibition (GSK3β Assay Kit, BPS Biosciences); type: biochemical; conditions: mean ± SD of three separate experiments
T1 construct: purchased BPS Biosciences, San Diego, CA, USA 79700
T1 sequence (P49841 whole entry): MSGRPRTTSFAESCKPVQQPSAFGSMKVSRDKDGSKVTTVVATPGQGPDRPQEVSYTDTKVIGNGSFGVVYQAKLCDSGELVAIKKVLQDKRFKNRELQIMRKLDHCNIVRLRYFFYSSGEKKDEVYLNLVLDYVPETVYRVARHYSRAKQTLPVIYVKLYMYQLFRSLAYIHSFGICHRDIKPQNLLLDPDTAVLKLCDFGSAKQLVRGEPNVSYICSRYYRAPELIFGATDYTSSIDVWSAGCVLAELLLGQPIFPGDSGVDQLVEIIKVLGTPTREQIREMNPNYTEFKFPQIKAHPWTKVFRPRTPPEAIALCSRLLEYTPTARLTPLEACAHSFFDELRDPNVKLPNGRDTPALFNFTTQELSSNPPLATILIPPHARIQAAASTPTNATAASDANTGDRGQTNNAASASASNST
Procedure: (§5) 2. CDK2/GSK-3β Kinase Inhibitory Activities
(§6) The CDK2 and GSK-3β inhibitory activities were determined for hybrids 5a-g using the CDK2
(§7) Kinase Enzyme System (catalog No. V2971) (Promega, Milan, Italy), and GSK3β Assay Kit

MCF-10A = experiment: MTT cytotoxicity towards non-tumorigenic breast cells MCF-10A; type: cell-based, human
Source text: In order to investigate their selectivity on cancer cells, hybrids 5d, 5e and 5f, endowed with dual growth inhibitory action against MCF-7 and T-47D cells, were assesses for their cytotoxic action towards the non-tumorigenic breast cells (MCF-10A), via the MTT assay. The obtained IC50s and the calculated mean tumour selectivity index (S.I.); IC50 for MCF-10A/IC50 average for (MCF-7 and T-47D) have been presented in Table 5.
as §1, §2
Cell proliferation was calculated comparing the OD values of the DMSO control wells and those of the samples represented as % proliferation to the control. Dose-response experiment was performed on samples producing > or =50% loss of cell proliferation using five serial 2-fold dilutions (50, 25, 12.5, 6.25 and 3.125 µM) of the sample. IC50 values (concentration of sample causing 50% loss of cell proliferation of the vehicle control) were calculated using non-linear regression curve fitting of the dose response plots on GraphPad Prism V.6.0 software. […]

CDK2 = target: T2, CDK2 (Homo sapiens, UniProt P24941); experiment: CDK2 kinase inhibition (CDK2 Kinase Enzyme System, Promega); type: biochemical; conditions: mean ± SD of three separate experiments
T2 construct: purchased Promega, Milan, Italy V2971
Procedure: as §5, §6, §7

T-47D = experiment: MTT anti-proliferative assay, T-47D breast cancer cells; type: cell-based; conditions: Homo sapiens, T47D, 48 h exposure, mean ± SD of three separate experiments
Procedure: as §1, §2, §3, §4

MCF-7 cells [2] = experiment: Cell cycle analysis by flow cytometry (PI stain) in MCF-7 cells; type: cell-based, human; conditions: 24 h, at IC50 concentration
Procedure: Compounds showing promising antiproliferative as well as kinase inhibitory activity 5d, 5e and 5f were further investigated for their influence on the cell cycle progression by flow cytometry analysis using propidium iodide (PI) stain. Cell cycle parameters were compared for the breast cancer MCF-7 cells with DMSO as control and after treatment with the compounds of interest and incubation for 24 h, and the results were presented in Figure 5 and Table 3. […]
concentration), and then cells were washed twice with ice-cold phosphate buffered saline (PBS).
Subsequently, the treated cells were collected by centrifugation, fixed in ice-cold 70% (v/v) ethanol, washed with PBS, re-suspended with 100 μg/mL RNase, stained with 40 μg/mL PI, and analyzed by flow cytometry using FACS Calibur (Becton Dickinson, BD, Franklin Lakes, NJ,

IC50 (MCF-7): 2.27 ± 0.06 µM | IC50 (GSK-3β): 0.0401 ± 0.0022 µM | IC50 (CDK2): 0.0528 ± 0.0029 µM | IC50 (T-47D): 7.8 ± 0.25 µM | melting point: > 300 °C
Structure (SMILES): COc1ccc2c(c1)C(=NNC(=O)c1cc3cc(Br)ccc3o1)C(=O)N2 [5f, 5-Bromo-N'-(5-methoxy-2-oxoindolin-3-ylidene)benzofuran-2-carbohydrazide]
Late Apoptosis (Upper Right %) (MCF-7 cells [1]; control 0.19): 22.16% | Early Apoptosis (Lower Right %) (MCF-7 cells [1]; control 0.63): 3.94% | Total apoptosis (L.R % + U.R %) (MCF-7 cells [1]; control 0.82): 26.10% | Necrosis (MCF-7 cells [1]; upper left quadrant, control 0.49): 2.14% | IC50 (MCF-10A; Homo sapiens, MCF-10A, MTT assay, non-tumorigenic breast cell line): 40 ± 1.42 µM | Mean tumour selectivity index (S.I.) (MCF-10A; IC50 for MCF-10A/IC50 average for (MCF-7 and T-47D)): 7.9 | %Sub-G1 (MCF-7 cells [2]; control 1.29): 22.02% | %G2/M (MCF-7 cells [2]; control 11.3): 37.82% | %S (MCF-7 cells [2]; control 33.82): 17.88% | %G0-G1 (MCF-7 cells [2]; control 53.59): 22.28%
